Inhibition and IC50 data for 20 molecules are collected here from US11149037B2, “Pyrazole MAGL inhibitors” (H. Lundbeck A/S, priority 2017, dated 2021).

Common to all, as to format: biochemical
Test [1] deals with MAGL (Mus musculus (Mouse), UniProt O35678). Description: In vitro competitive activity-based protein profiling, mouse proteomes (brain membrane fraction or cell lysates). As to conditions: mouse proteome, read-out: MAGL % inh. 1 μM (mouse). The essentials: (§1)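 Activity of MAGL and FAAH was quantified from fluorescent gel band intensities. Beforehand, inhibitors at several concentrations competed against subsequent probe labelling (FP-Rh, JW912 or HT-01) in species-matched proteomes, each step 30 min at 37° C.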
Chain of MAGL (Mus musculus (Mouse), UniProt O35678) (O35678 whole entry): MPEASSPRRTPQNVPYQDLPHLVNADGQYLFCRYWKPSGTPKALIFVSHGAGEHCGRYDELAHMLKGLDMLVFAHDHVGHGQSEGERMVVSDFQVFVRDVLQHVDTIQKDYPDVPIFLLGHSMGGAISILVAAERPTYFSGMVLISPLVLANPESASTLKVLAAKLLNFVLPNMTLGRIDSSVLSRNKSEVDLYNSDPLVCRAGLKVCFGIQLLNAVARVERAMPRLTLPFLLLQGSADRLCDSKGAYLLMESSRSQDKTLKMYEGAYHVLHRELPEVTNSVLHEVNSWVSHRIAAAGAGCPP

Test [2] deals with FAAH (Mus musculus (Mouse), UniProt O08914). The description is as above. As to conditions: mouse proteome, read-out: FAAH % inh. 1 μM (mouse). The essentials:
as §1

The target of test [3] is FAAH (Homo sapiens (Human), UniProt O00519). In words: In vitro competitive activity-based protein profiling, human proteomes (prefrontal cortex or PC3 cell membrane fractions). The note with it: human proteome; for inhibition at 1 µM: read-out: FAAH % inh. 1 μM (human). Put shortly:
as §1

The target in test [4] is MAGL (Homo sapiens (Human), UniProt Q99685). The test is described as above. The note with it: human proteome; for inhibition at 1 µM: read-out: MAGL % inh. 1 μM (human). Put shortly:
as §1

Each structure is given as a SMILES string. Bounds are passed on as bounds.

One may read the IC50 as the concentration needed to halve the response being measured.

Chain of FAAH (Mus musculus (Mouse), UniProt O08914) (O08914 whole entry): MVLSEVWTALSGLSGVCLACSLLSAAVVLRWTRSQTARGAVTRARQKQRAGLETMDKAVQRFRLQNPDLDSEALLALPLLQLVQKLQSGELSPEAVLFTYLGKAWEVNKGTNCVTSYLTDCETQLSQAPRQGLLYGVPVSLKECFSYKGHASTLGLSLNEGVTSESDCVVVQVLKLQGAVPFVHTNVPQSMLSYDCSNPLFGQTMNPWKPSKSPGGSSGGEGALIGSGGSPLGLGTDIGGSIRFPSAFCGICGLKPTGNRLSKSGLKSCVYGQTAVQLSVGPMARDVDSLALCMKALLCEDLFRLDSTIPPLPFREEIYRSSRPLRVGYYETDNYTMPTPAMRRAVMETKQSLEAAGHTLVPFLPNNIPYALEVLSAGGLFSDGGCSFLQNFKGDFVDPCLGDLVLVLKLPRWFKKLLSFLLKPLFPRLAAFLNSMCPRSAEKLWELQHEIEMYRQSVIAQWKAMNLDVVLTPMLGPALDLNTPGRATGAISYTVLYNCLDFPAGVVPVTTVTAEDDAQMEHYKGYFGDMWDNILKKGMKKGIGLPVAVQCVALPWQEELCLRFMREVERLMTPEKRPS
Chain of FAAH (Homo sapiens (Human), UniProt O00519) (O00519 whole entry): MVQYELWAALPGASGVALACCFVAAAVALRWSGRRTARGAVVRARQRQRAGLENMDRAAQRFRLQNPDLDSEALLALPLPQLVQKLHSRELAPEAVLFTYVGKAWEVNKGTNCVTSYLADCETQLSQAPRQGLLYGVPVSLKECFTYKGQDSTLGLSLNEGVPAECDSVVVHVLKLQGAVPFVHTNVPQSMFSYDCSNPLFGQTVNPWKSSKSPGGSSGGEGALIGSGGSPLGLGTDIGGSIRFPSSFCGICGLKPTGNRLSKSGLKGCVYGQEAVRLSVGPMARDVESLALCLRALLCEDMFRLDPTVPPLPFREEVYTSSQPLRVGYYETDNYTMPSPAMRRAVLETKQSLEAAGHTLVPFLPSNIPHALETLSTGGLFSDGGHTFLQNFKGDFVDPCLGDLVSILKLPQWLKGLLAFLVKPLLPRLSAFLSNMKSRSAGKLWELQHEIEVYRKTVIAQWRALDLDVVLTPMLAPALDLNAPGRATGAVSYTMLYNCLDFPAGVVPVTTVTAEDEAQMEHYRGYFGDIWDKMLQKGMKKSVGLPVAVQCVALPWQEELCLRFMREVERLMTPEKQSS
Chain of MAGL (Homo sapiens (Human), UniProt Q99685) (Q99685 whole entry): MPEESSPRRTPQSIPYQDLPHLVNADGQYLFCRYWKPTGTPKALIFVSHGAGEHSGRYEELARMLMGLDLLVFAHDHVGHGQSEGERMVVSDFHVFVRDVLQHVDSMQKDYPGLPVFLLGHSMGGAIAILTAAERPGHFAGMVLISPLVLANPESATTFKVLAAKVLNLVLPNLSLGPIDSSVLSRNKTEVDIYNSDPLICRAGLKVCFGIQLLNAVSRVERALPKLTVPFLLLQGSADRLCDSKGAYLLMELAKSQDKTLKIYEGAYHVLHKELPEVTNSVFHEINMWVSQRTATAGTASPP

As to `CS(=O)(=O)Nc1ccn(C(=O)N2CCN(Cc3sc4ccccc4c3Cl)CC2)n1` [Example 70, N-(1-(4-((3-Chlorobenzo[b]thiophen-2-yl)methyl)piperazine-1-carbonyl)-1H-pyrazol-3-yl)methanesulfonamide], the inhibition at 1 µM on MAGL [1] was greater than 75%; on FAAH [2], 0 to 25%; on FAAH [3] it was 0 to 25%; on MAGL [4], greater than 75%.
`CS(=O)(=O)Nc1ccn(C(=O)N2CCC3(CCN(Cc4ccc(N5CCCC5)c(C(F)(F)F)c4)C3)CC2)n1` [Example 72, N-(1-(2-(4-(Pyrrolidin-1-yl)-3-(trifluoromethyl)benzyl)-2,8-diazaspiro[4.5]decane-8-carbonyl)-1H-pyrazol-3-yl)methanesulfonamide]: the inhibition at 1 µM at MAGL [1] is 25 to 50%; on FAAH [2], 50 to 75%; on FAAH [3], 0 to 25%; at MAGL [4] it was greater than 75%.
For the molecule `CS(=O)(=O)Nc1ccn(C(=O)N2CCC3(CCN(Cc4ccc(C(F)(F)F)c(N5CCCC5)c4)C3)CC2)n1` [Example 73, N-(1-(2-(3-(Pyrrolidin-1-yl)-4-(trifluoromethyl)benzyl)-2,8-diazaspiro[4.5]decane-8-carbonyl)-1H-pyrazol-3-yl)methanesulfonamide], the inhibition at 1 µM was greater than 75% at MAGL [1], 50 to 75% on FAAH [2], 0 to 25% on FAAH [3] and greater than 75% on MAGL [4].
As to `CS(=O)(=O)Nc1ccn(C(=O)N2CCC3(CCN(Cc4ccc(C(F)(F)F)cc4N4C5CCC4COC5)C3)CC2)n1` [Example 74, N-(1-(2-(2-(3-Oxa-8-azabicyclo[3.2.1]octan-8-yl)-4-(trifluoromethyl)benzyl)-2,8-diazaspiro[4.5]decane-8-carbonyl)-1H-pyrazol-3-yl)methanesulfonamide], the inhibition at 1 µM was greater than 75% on MAGL [1], 0 to 25% on FAAH [2], 0 to 25% at FAAH [3] and greater than 75% at MAGL [4]. Also, the results for the IC50 on FAAH [3] and at MAGL [4] were 1 to 10 µM and less than 0.1 µM, respectively.
For `CS(=O)(=O)Nc1ccn(C(=O)N2CCN(Cc3ccc(C(F)(F)F)cc3NCCC(=O)O)CC2)n1` [Example 77, 3-((2-((4-(3-(Methylsulfonamido)-1H-pyrazole-1-carbonyl)piperazin-1-yl)methyl)-5-(trifluoromethyl)phenyl)amino)propanoic acid], the inhibition at 1 µM at MAGL [1] was 0 to 25%; on FAAH [2] it was 0 to 25%; on FAAH [3], 0 to 25%; on MAGL [4] it was 50 to 75%.
Consider `CS(=O)(=O)Nc1ccn(C(=O)N2CC3CN(Cc4ccc(C(F)(F)F)cc4NCCCC(=O)O)CC3C2)n1` (stereo not shown) [Example 78, 4-((2-((5-(3-(Methylsulfonamido)-1H-pyrazole-1-carbonyl)hexahydropyrrolo[3,4-c]pyrrol-2(1H)-yl)methyl)-5-(trifluoromethyl)phenyl)amino)butanoic acid], for which the inhibition at 1 µM was greater than 75% at MAGL [1], 0 to 25% on FAAH [2], 0 to 25% at FAAH [3] and greater than 75% on MAGL [4].
For the molecule `CS(=O)(=O)Nc1ccn(C(=O)N2CCN(Cc3cccnc3N3CCCC3)CC2)n1` [Example 81, N-(1-(4-((2-(Pyrrolidin-1-yl)pyridin-3-yl)methyl)piperazine-1-carbonyl)-1H-pyrazol-3-yl)methanesulfonamide], the inhibition at 1 µM was 50 to 75% on MAGL [1], 0 to 25% on FAAH [2], 0 to 25% at FAAH [3] and greater than 75% at MAGL [4].
For `CS(=O)(=O)Nc1ccn(C(=O)N2CCN(Cc3ccncc3N3CCCC3)CC2)n1` [Example 82, N-(1-(4-((3-(Pyrrolidin-1-yl)pyridin-4-yl)methyl)piperazine-1-carbonyl)-1H-pyrazol-3-yl)methanesulfonamide], the inhibition at 1 µM at MAGL [1] was 50 to 75%; on FAAH [2], 0 to 25%; on FAAH [3] it was 0 to 25%; on MAGL [4] it was greater than 75%.
As for `Cc1cc(CN2CCCC23CCN(C(=O)n2ccc(NC(=O)C4CC4)n2)CC3)ccc1Cl` [Example 83, N-(1-(1-(4-Chloro-3-methylbenzyl)-1,8-diazaspiro[4.5]decane-8-carbonyl)-1H-pyrazol-3-yl)cyclopropanecarboxamide], the inhibition at 1 µM at MAGL [1] is greater than 75%; on FAAH [2] it was 0 to 25%; at FAAH [3], 0 to 25%; at MAGL [4] it was greater than 75%.
As for `CC(=O)Nc1ccn(C(=O)N2CCC3(CCCN3C(=O)c3ccc(Cl)c(C)c3)CC2)n1` [Example 84, N-(1-(1-(4-Chloro-3-methylbenzoyl)-1,8-diazaspiro[4.5]decane-8-carbonyl)-1H-pyrazol-3-yl)acetamide], the inhibition at 1 µM at MAGL [1] is greater than 75%; at FAAH [2], 0 to 25%; at FAAH [3] it was 0 to 25%; at MAGL [4], greater than 75%.
With `CC(=O)Nc1ccn(C(=O)N2CCC3(CCCN3C(=O)c3ccc(C#N)c(C)c3)CC2)n1` [Example 85, N-(1-(1-(4-Cyano-3-methylbenzoyl)-1,8-diazaspiro[4.5]decane-8-carbonyl)-1H-pyrazol-3-yl)acetamide], the inhibition at 1 µM at MAGL [1] is greater than 75%; on FAAH [2], 0 to 25%; at FAAH [3], 0 to 25%; on MAGL [4], greater than 75%.
For the molecule `CS(=O)(=O)Nc1ccn(C(=O)N2CCN(Cc3ncccc3N3CCCC3)CC2)n1` [Example 86, N-(1-(4-((3-(Pyrrolidin-1-yl)pyridin-2-yl)methyl)piperazine-1-carbonyl)-1H-pyrazol-3-yl)methanesulfonamide], the inhibition at 1 µM lay in the range of 25 to 50% at MAGL [1], 0 to 25% at FAAH [2], 0 to 25% on FAAH [3] and 25 to 50% on MAGL [4].
Take `CC1CN(C(=O)n2ccc(NS(C)(=O)=O)n2)CCN1Cc1ccc(C(F)(F)F)cc1N1CCCC1` (stereo not shown) [Example 88, N-(1-(3-Methyl-4-(2-(pyrrolidin-1-yl)-4-(trifluoromethyl)benzyl)piperazine-1-carbonyl)-1H-pyrazol-3-yl)methanesulfonamide]: the inhibition at 1 µM on MAGL [1] was greater than 75%; on FAAH [2], 0 to 25%; at FAAH [3] it was 0 to 25%; on MAGL [4], greater than 75%.
`CS(=O)(=O)Nc1ccn(C(=O)N2CCN(Cc3ccc(C(F)(F)F)cc3S(=O)(=O)C3CC3)CC2)n1` [Example 89, N-(1-(4-(2-(Cyclopropylsulfonyl)-4-(trifluoromethyl)benzyl)piperazine-1-carbonyl)-1H-pyrazol-3-yl)methanesulfonamide]: the inhibition at 1 µM is greater than 75% on MAGL [1], 0 to 25% at FAAH [2], 0 to 25% on FAAH [3] and greater than 75% at MAGL [4].
On to `CN(Cc1ccc(C(F)(F)F)nc1N1CCCC1)C1(C)CCN(C(=O)n2ccc(NS(C)(=O)=O)n2)CC1` [Example 91, N-(1-(4-Methyl-4-(methyl((2-(pyrrolidin-1-yl)-6-(trifluoromethyl)pyridin-3-yl)methyl)amino)piperidine-1-carbonyl)-1H-pyrazol-3-yl)methanesulfonamide], for which the inhibition at 1 µM was greater than 75% at MAGL [1], 50 to 75% on FAAH [2], 25 to 50% on FAAH [3] and greater than 75% at MAGL [4].
Take `CS(=O)(=O)Nc1ccn(C(=O)N2CCC(Oc3ccc(C(F)(F)F)cc3N3C4CCC3COC4)CC2)n1` [Example 92, N-(1-(4-(2-(3-Oxa-8-azabicyclo[3.2.1]octan-8-yl)-4-(trifluoromethyl)phenoxy)piperidine-1-carbonyl)-1H-pyrazol-3-yl)methanesulfonamide]: the inhibition at 1 µM at MAGL [1] was greater than 75%; at FAAH [2] it was 0 to 25%; on FAAH [3] it was 0 to 25%; at MAGL [4] it was greater than 75%.
As for `CS(=O)(=O)Nc1ccn(C(=O)N2CCC(Oc3ccc(C(F)(F)F)nc3N3CCCC3)CC2)n1` [Example 95, N-(1-(4-((2-(Pyrrolidin-1-yl)-6-(trifluoromethyl)pyridin-3-yl)oxy)piperidine-1-carbonyl)-1H-pyrazol-3-yl)methanesulfonamide], the inhibition at 1 µM is greater than 75% on MAGL [1], 0 to 25% on FAAH [2], 0 to 25% on FAAH [3] and greater than 75% at MAGL [4].
Turning to `CN(Cc1ccc(C(F)(F)F)cc1N1CCC(C(=O)O)C1)C1(C)CCN(C(=O)n2ccc(NS(C)(=O)=O)n2)CC1` (stereo not shown) [Example 97, 1-(2-((Methyl(4-methyl-1-(3-(methylsulfonamido)-1H-pyrazole-1-carbonyl)piperidin-4-yl)amino)methyl)-5-(trifluoromethyl)phenyl)pyrrolidine-3-carboxylic acid], the inhibition at 1 µM at MAGL [1] lay in the range of 25 to 50%; at FAAH [2], 0 to 25%; on FAAH [3] it was 0 to 25%; on MAGL [4] it was 25 to 50%.
As to `CS(=O)(=O)Nc1ccn(C(=O)N2CCC(Oc3ccc(C(F)(F)F)cc3NCC(=O)O)CC2)n1` [Example 99, (2-((1-(3-(Methylsulfonamido)-1H-pyrazole-1-carbonyl)piperidin-4-yl)oxy)-5-(trifluoromethyl)phenyl)glycine], the inhibition at 1 µM on MAGL [1] is greater than 75%; at FAAH [2], 0 to 25%; on FAAH [3] it was 0 to 25%; at MAGL [4] it was greater than 75%.
As for `CS(=O)(=O)Nc1ccn(C(=O)N2CCC(Oc3ccc(C(F)(F)F)cc3N3CCCC3=O)CC2)n1` [Example 100, N-(1-(4-(2-(2-Oxopyrrolidin-1-yl)-4-(trifluoromethyl)phenoxy)piperidine-1-carbonyl)-1H-pyrazol-3-yl)methanesulfonamide], the inhibition at 1 µM on MAGL [1] is 50 to 75%; on FAAH [2], 0 to 25%; on FAAH [3] it was 0 to 25%; on MAGL [4], 50 to 75%.
